From patent US4221811A, “Antifungal and/or antibacterial organotin compounds, and use” (priority 1977, dated 1980)

Tests used:
fungi [1] = conditions: literature citation (1); cited from earlier work
E. coli = format: cell-based; conditions: E. coli (Gram-neg.); after three days; peptone-glucose agar; pH ~ 6.9-7.0
From the text: (§1) Antibacterial activity of organotin compounds. Minimal concentration
(§2) causing complete inhibition of visible growth (MIC; after three days).
(§3) Test medium: peptone-glucose agar; pH ~ 6.9-7.0.

B. subtilis = format: cell-based; conditions: B. subtilis (Gram-pos.); after three days; peptone-glucose agar; pH ~ 6.9-7.0
From the text: as §1, §2, §3

P. fluorescens = format: cell-based; conditions: P. fluorescens (Gram-neg.); after three days; peptone-glucose agar; pH ~ 6.9-7.0
From the text: as §1, §2, §3

S. lactis = format: cell-based; conditions: S. lactis (Gram-pos.); after three days; peptone-glucose agar; pH ~ 6.9-7.0
From the text: as §1, §2, §3

Cladosporium cucumerinum = format: cell-based; conditions: after three days, glucose-agar, pH~6.9-7.0
From the text: (§4) Antifungal activity of organotin compounds. Minimal concentra-
(§5) tion (mg/l) causing complete inhibition of visible growth (MIC;
(§6) after three days). -Test medium: glucose-agar; pH~6.9-7.0.

Penicillium italicum = format: cell-based; conditions: after three days, glucose-agar, pH~6.9-7.0
From the text: as §4, §5, §6

Botrytis allii = format: cell-based; conditions: after three days, glucose-agar, pH~6.9-7.0
From the text: as §4, §5, §6

Aspergillus niger = format: cell-based; conditions: after three days, glucose-agar, pH~6.9-7.0
From the text: as §4, §5, §6

fungi [2] = experiment: Antifungal activity; format: cell-based
From the text: as §4, §5, §6

physchem = conditions: water
bacteria = experiment: Antibacterial activity; format: cell-based
From the text: as §1, §2, §3

SMILES: CCC[CH2][Sn]([Br])([CH2]CCC)[CH2]CCC [Bu3 SnBr]
- antifungal activity, MIC values (fungi [1]): about 10 mg/l

SMILES: CCC[CH2][Sn]([CH3])([CH2]CCC)[CH2]CCNCCCN(C)C.Cl.Cl [MeBu2 Sn(CH2)3 NH(CH2)3 NMe2 . 2]
- Minimal concentration causing complete inhibition of visible growth (MIC) (E. coli): 3 µg/mL
- Minimal concentration causing complete inhibition of visible growth (MIC) (B. subtilis): 3 µg/mL
- Minimal concentration causing complete inhibition of visible growth (MIC) (P. fluorescens): 3 µg/mL
- Minimal concentration causing complete inhibition of visible growth (MIC) (S. lactis): 3 µg/mL
- Minimal concentration causing complete inhibition of visible growth (MIC) (Cladosporium cucumerinum): 20 µg/mL
- Minimal concentration causing complete inhibition of visible growth (MIC) (Penicillium italicum): ≤ 10 µg/mL
- Minimal concentration causing complete inhibition of visible growth (MIC) (Botrytis allii): ≤ 10 µg/mL
- Minimal concentration causing complete inhibition of visible growth (MIC) (Aspergillus niger): 100 µg/mL
- solubility in water: 50%

SMILES: CC[CH2][Sn]([CH2]CC)([CH2]CC)[CH2]CCNCCCN(C)C.Cl.Cl [Pr3 Sn(CH2)3 NH(CH2)3 NMe2 . 2]
- Minimal concentration causing complete inhibition of visible growth (MIC) (E. coli): 10 µg/mL
- Minimal concentration causing complete inhibition of visible growth (MIC) (B. subtilis): 10 µg/mL
- Minimal concentration causing complete inhibition of visible growth (MIC) (P. fluorescens): 10 µg/mL
- Minimal concentration causing complete inhibition of visible growth (MIC) (S. lactis): 10 µg/mL
- Minimal concentration causing complete inhibition of visible growth (MIC) (Cladosporium cucumerinum): 20 µg/mL
- Minimal concentration causing complete inhibition of visible growth (MIC) (Penicillium italicum): 10 µg/mL
- Minimal concentration causing complete inhibition of visible growth (MIC) (Botrytis allii): ≤ 10 µg/mL
- Minimal concentration causing complete inhibition of visible growth (MIC) (Aspergillus niger): 20 µg/mL
- solubility in water: 50%

SMILES: CCC[CH2][Sn]([CH2]CCC)([CH2]CCC)[CH2]CCCBr [Bu3 Sn(CH2)4 Br, (4-bromobutyl)tributyltin]
- antifungal activity (in words) (fungi [2]): somewhat less effective, although they show a surprisingly effective antifungal activity

SMILES: CCC[CH2][Sn]([CH3])([Br])[CH2]CC[N+](C)(C)C.[I-] (stereo not drawn) [MeBuBrSn(CH2)3 NMe3 I, reference compound]
- antifungal activity, MIC (fungi [2]): > 500 µg/mL
- Minimal concentration causing complete inhibition of visible growth (MIC) (Cladosporium cucumerinum): > 500 µg/mL
- Minimal concentration causing complete inhibition of visible growth (MIC) (Penicillium italicum): > 500 µg/mL
- Minimal concentration causing complete inhibition of visible growth (MIC) (Botrytis allii): > 500 µg/mL
- Minimal concentration causing complete inhibition of visible growth (MIC) (Aspergillus niger): > 500 µg/mL

SMILES: CCC[CH2][Sn]([CH2]CCC)([CH2]CCC)[CH2]CCBr [Bu3 Sn(CH2)3 Br, (3-bromopropyl)tributyltin]
- antifungal activity (in words) (fungi [2]): somewhat less effective, although they show a surprisingly effective antifungal activity

SMILES: CCC[CH2][Sn]([CH3])([Br])[CH2]CC (stereo not drawn) [MePrBuSnBr]
- antifungal activity, MIC values (fungi [1]): about 10 mg/l

SMILES: CCC[CH2][Sn]([CH2]CCC)([CH2]CCC)[CH2]CCN(C)C [Bu3 Sn(CH2)3 NMe2, (3-dimethylaminopropyl)tributyltin]
- solubility (physchem): ~20 mg/mL

SMILES: CCC[CH2][Sn]([CH3])([Br])[CH2]CCC [MeBu2 SnBr]
- antifungal activity, MIC values (fungi [1]): about 10 mg/l

SMILES: CCC[CH2][Sn]([CH2]CCC)([CH2]CCC)[O][Sn]([CH2]CCC)([CH2]CCC)[CH2]CCC [bis(tributyltin)oxide, reference compound]
- solubility in water: 0.003%

SMILES: CC[CH2][Sn]([CH2]CC)([CH2]CC)[CH2]Cc1ccncc1 [tripropyl-[3-(4-pyridyl)ethyl]tin]
- antibacterial activity (in words) (bacteria): high antifungal as well as antibacterial activity
- antifungal activity (in words) (fungi [2]): high antifungal as well as antibacterial activity

SMILES: CCC[CH2][Sn]([CH2]CCC)([CH2]CCC)[CH2]CC(=O)OC [Bu3 Sn(CH2)2 COOMe, tributyl-(3-carbomethoxyethyl)tin]
- Minimal concentration causing complete inhibition of visible growth (MIC) (E. coli): 100 µg/mL
- Minimal concentration causing complete inhibition of visible growth (MIC) (B. subtilis): 30 µg/mL
- Minimal concentration causing complete inhibition of visible growth (MIC) (P. fluorescens): > 1000 µg/mL
- Minimal concentration causing complete inhibition of visible growth (MIC) (S. lactis): 30 µg/mL
- antibacterial activity (in words) (bacteria): high antifungal and antibacterial activity
- antifungal activity (in words) (fungi [2]): high antifungal and antibacterial activity
- Minimal concentration causing complete inhibition of visible growth (MIC) (Cladosporium cucumerinum): 1 µg/mL
- Minimal concentration causing complete inhibition of visible growth (MIC) (Penicillium italicum): 1 µg/mL
- Minimal concentration causing complete inhibition of visible growth (MIC) (Botrytis allii): 0.5 µg/mL
- Minimal concentration causing complete inhibition of visible growth (MIC) (Aspergillus niger): 5 µg/mL
